Experimental data reported in patent US6566086B1, “Diagnostic kit for detecting creatine levels” (FAL Diagnostics, priority 2000, dated 2003).

How the values were obtained:
[1] = system: animal models of Huntington's disease; conditions: oral supplementation; cited from earlier work
[2] = 1H NMR detection of the interaction of substance 42 with creatine; type: binding; conditions: CD3OD solution; creatine added to the test solution
Experimental: The ability of substance 42 to detect creatine was evaluated by ^1H NMR spectroscopy. […] (Bell, T. W. et al. 36th National Organic Symposium, U. of Wisconsin, Madison, Wis., Jun. 13, 1999-Jun. 17, 1999). [drawing 32] [drawing 33]

| SMILES | protection from malonate lesions [1] | ability to detect creatine (interaction with creatine by 1H NMR) [2] |
| --- | --- | --- |
| N=C1NCCN1CC(=O)O [cyclocreatine, 1-carboxymethyl-2-iminoimidazolidine] | protect the animals from malonate lesions | – |
| O=C(O)c1ccc2c(n1)-c1nc3nc4c(cc3cc1CC2)CCc1ccc(C(=O)O)nc1-4 [Substance 42] | – | interaction of creatine with substance 42 was detected |
